Assay results as given in PubChem BioAssay (NCI).
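Step 1: Grow cells in 96-well plates. Step 2: Expose to compound for 48 hours at 5 concentrations. Step 3: Interpolate endpoints linearly; if unreached, use highest concentration. TGI denotes the concentration required for complete inhibition of growth.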

How the values were obtained:
Assay in all cases: NCI tumour cell line growth inhibition, 48 h
786-0 renal = test system: 786-0 renal
A549 NSCLC = test system: A549 NSCLC
ACHN renal = test system: ACHN renal
BT-549 breast = test system: BT-549 breast
CAKI-1 renal = test system: CAKI-1 renal
CCRF-CEM leukemia = test system: CCRF-CEM leukemia
COLO 205 colon = test system: COLO 205 colon
DU-145 prostate = test system: DU-145 prostate
EKVX NSCLC = test system: EKVX NSCLC
HCC-2998 colon = test system: HCC-2998 colon
HCT-116 colon = test system: HCT-116 colon
HCT-15 colon = test system: HCT-15 colon
HL-60(TB) leukemia = test system: HL-60(TB) leukemia
HOP-62 NSCLC = test system: HOP-62 NSCLC
HS 578T breast = test system: HS 578T breast
HT29 colon = test system: HT29 colon
IGROV1 ovarian = test system: IGROV1 ovarian
K-562 leukemia = test system: K-562 leukemia
KM12 colon = test system: KM12 colon
LOX IMVI melanoma = test system: LOX IMVI melanoma
M14 melanoma = test system: M14 melanoma
MALME-3M melanoma = test system: MALME-3M melanoma
MCF7 breast = test system: MCF7 breast
MDA-MB-231 breast = test system: MDA-MB-231 breast
MDA-N = test system: MDA-N
NCI-H460 lung = test system: NCI-H460 lung
NCI-H522 lung = test system: NCI-H522 lung
NCI/ADR-RES ovarian = test system: NCI/ADR-RES ovarian
OVCAR-3 ovarian = test system: OVCAR-3 ovarian
OVCAR-4 ovarian = test system: OVCAR-4 ovarian
OVCAR-5 ovarian = test system: OVCAR-5 ovarian
OVCAR-8 ovarian = test system: OVCAR-8 ovarian
PC-3 prostate = test system: PC-3 prostate
RXF 393 renal = test system: RXF 393 renal
SF-268 CNS = test system: SF-268 CNS
SF-295 CNS = test system: SF-295 CNS
SF-539 CNS = test system: SF-539 CNS
SK-MEL-2 melanoma = test system: SK-MEL-2 melanoma
SK-MEL-5 melanoma = test system: SK-MEL-5 melanoma
SK-OV-3 ovarian = test system: SK-OV-3 ovarian
SN12C renal = test system: SN12C renal
SNB-19 CNS = test system: SNB-19 CNS
SNB-75 CNS = test system: SNB-75 CNS
T-47D breast = test system: T-47D breast
TK-10 renal = test system: TK-10 renal
UACC-257 melanoma = test system: UACC-257 melanoma
A498 renal = test system: A498 renal
HOP-92 NSCLC = test system: HOP-92 NSCLC
MDA-MB-435 = test system: MDA-MB-435
MOLT-4 leukemia = test system: MOLT-4 leukemia
NCI-H226 lung = test system: NCI-H226 lung
NCI-H23 lung = test system: NCI-H23 lung
RPMI-8226 leukemia = test system: RPMI-8226 leukemia
SK-MEL-28 melanoma = test system: SK-MEL-28 melanoma
SR leukemia = test system: SR leukemia
SW-620 colon = test system: SW-620 colon
U251 CNS = test system: U251 CNS
UACC-62 melanoma = test system: UACC-62 melanoma
UO-31 renal = test system: UO-31 renal

O=C1CCC[C@]2(CCC[C@@H](O)C2)N1
TGI (786-0 renal): > 100 µM
TGI (A549 NSCLC): > 100 µM
TGI (ACHN renal): > 100 µM
TGI (BT-549 breast): > 100 µM
TGI (CAKI-1 renal): > 100 µM
TGI (CCRF-CEM leukemia): > 100 µM
TGI (COLO 205 colon): > 100 µM
TGI (DU-145 prostate): > 100 µM
TGI (EKVX NSCLC): > 100 µM
TGI (HCC-2998 colon): > 100 µM
TGI (HCT-116 colon): > 100 µM
TGI (HCT-15 colon): > 100 µM
TGI (HL-60(TB) leukemia): > 100 µM
TGI (HOP-62 NSCLC): > 100 µM
TGI (HS 578T breast): > 100 µM
TGI (HT29 colon): > 100 µM
TGI (IGROV1 ovarian): > 100 µM
TGI (K-562 leukemia): > 100 µM
TGI (KM12 colon): > 100 µM
TGI (LOX IMVI melanoma): > 100 µM
TGI (M14 melanoma): > 100 µM
TGI (MALME-3M melanoma): > 100 µM
TGI (MCF7 breast): > 100 µM
TGI (MDA-MB-231 breast): > 100 µM
TGI (MDA-N): > 100 µM
TGI (NCI-H460 lung): > 100 µM
TGI (NCI-H522 lung): > 100 µM
TGI (NCI/ADR-RES ovarian): > 100 µM
TGI (OVCAR-3 ovarian): > 100 µM
TGI (OVCAR-4 ovarian): > 100 µM
TGI (OVCAR-5 ovarian): > 100 µM
TGI (OVCAR-8 ovarian): > 100 µM
TGI (PC-3 prostate): > 100 µM
TGI (RXF 393 renal): > 100 µM
TGI (SF-268 CNS): > 100 µM
TGI (SF-295 CNS): > 100 µM
TGI (SF-539 CNS): > 100 µM
TGI (SK-MEL-2 melanoma): > 100 µM
TGI (SK-MEL-5 melanoma): > 100 µM
TGI (SK-OV-3 ovarian): > 100 µM
TGI (SN12C renal): > 100 µM
TGI (SNB-19 CNS): > 100 µM
TGI (SNB-75 CNS): > 100 µM
TGI (T-47D breast): > 100 µM
TGI (TK-10 renal): > 100 µM
TGI (UACC-257 melanoma): > 100 µM

O=C1/C(=C\c2cccc(Oc3ccccc3)c2)S(=O)(=O)C(c2ccccc2)N1c1ccc(Cl)cc1 (stereo not drawn)
TGI (786-0 renal): 27 µM
TGI (A498 renal): > 100 µM
TGI (A549 NSCLC): > 100 µM
TGI (ACHN renal): 36.9 µM
TGI (BT-549 breast): 49.9 µM
TGI (CAKI-1 renal): 84.2 µM
TGI (CCRF-CEM leukemia): 79.1 µM
TGI (COLO 205 colon): 28.2 µM
TGI (DU-145 prostate): 37.4 µM
TGI (EKVX NSCLC): 84.5 µM
TGI (HCC-2998 colon): > 100 µM
TGI (HCT-116 colon): 26.8 µM
TGI (HCT-15 colon): 32.8 µM
TGI (HL-60(TB) leukemia): 32.7 µM
TGI (HOP-62 NSCLC): > 100 µM
TGI (HOP-92 NSCLC): 30.8 µM
TGI (HT29 colon): 28.2 µM
TGI (IGROV1 ovarian): 33.2 µM
TGI (K-562 leukemia): 56.9 µM
TGI (KM12 colon): > 100 µM
TGI (LOX IMVI melanoma): 27.8 µM
TGI (M14 melanoma): 26.9 µM
TGI (MALME-3M melanoma): 33.6 µM
TGI (MCF7 breast): 62.9 µM
TGI (MDA-MB-231 breast): 34.7 µM
TGI (MDA-MB-435): 25.4 µM
TGI (MDA-N): 29 µM
TGI (MOLT-4 leukemia): 33.1 µM
TGI (NCI-H226 lung): > 100 µM
TGI (NCI-H23 lung): > 100 µM
TGI (NCI-H460 lung): > 100 µM
TGI (NCI-H522 lung): 29.5 µM
TGI (NCI/ADR-RES ovarian): 54.1 µM
TGI (OVCAR-3 ovarian): 32.7 µM
TGI (OVCAR-4 ovarian): 52.3 µM
TGI (OVCAR-5 ovarian): 88.7 µM
TGI (OVCAR-8 ovarian): 37.3 µM
TGI (PC-3 prostate): > 100 µM
TGI (RPMI-8226 leukemia): > 100 µM
TGI (RXF 393 renal): 29.4 µM
TGI (SF-295 CNS): 41.2 µM
TGI (SF-539 CNS): 41.7 µM
TGI (SK-MEL-2 melanoma): 34.5 µM
TGI (SK-MEL-28 melanoma): 34 µM
TGI (SK-MEL-5 melanoma): 30.5 µM
TGI (SK-OV-3 ovarian): > 100 µM
TGI (SN12C renal): 29 µM
TGI (SNB-19 CNS): 55.9 µM
TGI (SNB-75 CNS): > 100 µM
TGI (SR leukemia): 40 µM
TGI (SW-620 colon): 34.4 µM
TGI (T-47D breast): 29.9 µM
TGI (TK-10 renal): > 100 µM
TGI (U251 CNS): 30.5 µM
TGI (UACC-257 melanoma): 94.3 µM
TGI (UACC-62 melanoma): 57 µM
TGI (UO-31 renal): 26.8 µM
